Calls of active or inactive are those of the source.
How the values were obtained:
[1] = system: Escherichia coli; assay: microbe, parasite or virus in culture
[2] = system: Vero; assay: cells; type: functional, cell-based; conditions: Chlorocebus sabaeus
[3] = cells; type: functional
[4] = cytotoxicity toward NIH3T3 fibroblasts, dose response, counter-screen, cell-based, ATP luminescence, mouse fibroblasts (AID 2010); type: functional;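 note: cells exposed to compound for about 90 hours before reading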
[5] = inhibitors of intracellular T. cruzi replication, confirmation, NIH3T3 host cells, beta-gal luminescence (AID 2044); type: functional, cell-based;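 note: intracellular parasites grown in NIH/3T3 mouse fibroblasts as host cells; luminescent beta-galactosidase reporter signal from transgenic T. cruzi replicating inside host cells; inhibitors lower the luminescence signal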
[6] = biological target: Mu-type opioid receptor (Homo sapiens, UniProt P35372); assay: (§1) Counterscreen for agonists of heterodimerization of the mu 1 (OPRM1) and delta 1 (OPRD1) opioid receptors: Luminescence-based cell-based high throughput dose response assay to identify agonists of OPRM1 homodimerization.; type: functional
[7] = biological target: 5-hydroxytryptamine receptor 5A (Homo sapiens, UniProt P47898); assay: Counterscreen for agonists of OPRM1-OPRD1 heterodimerization: luminescence-based cell-based high throughput dose response assay to identify agonists of 5-hydroxytryptamine (serotonin) 5A receptor (HTR5A). [Related pubchem assays (depositor defined):AID504326, AID504355, AID504692, AID504904, AID504905]; type: functional
[8] = biological target: T1, Short transient receptor potential channel 4 (Mus musculus, UniProt Q9QUQ5); assay: mouse TRPC4 channel activators, dose response, cell-based, HEK293 TRPC4/mu-opioid, Fluo-4 calcium (AID 434937); type: functional
T1 sequence (Q9QUQ5 whole entry): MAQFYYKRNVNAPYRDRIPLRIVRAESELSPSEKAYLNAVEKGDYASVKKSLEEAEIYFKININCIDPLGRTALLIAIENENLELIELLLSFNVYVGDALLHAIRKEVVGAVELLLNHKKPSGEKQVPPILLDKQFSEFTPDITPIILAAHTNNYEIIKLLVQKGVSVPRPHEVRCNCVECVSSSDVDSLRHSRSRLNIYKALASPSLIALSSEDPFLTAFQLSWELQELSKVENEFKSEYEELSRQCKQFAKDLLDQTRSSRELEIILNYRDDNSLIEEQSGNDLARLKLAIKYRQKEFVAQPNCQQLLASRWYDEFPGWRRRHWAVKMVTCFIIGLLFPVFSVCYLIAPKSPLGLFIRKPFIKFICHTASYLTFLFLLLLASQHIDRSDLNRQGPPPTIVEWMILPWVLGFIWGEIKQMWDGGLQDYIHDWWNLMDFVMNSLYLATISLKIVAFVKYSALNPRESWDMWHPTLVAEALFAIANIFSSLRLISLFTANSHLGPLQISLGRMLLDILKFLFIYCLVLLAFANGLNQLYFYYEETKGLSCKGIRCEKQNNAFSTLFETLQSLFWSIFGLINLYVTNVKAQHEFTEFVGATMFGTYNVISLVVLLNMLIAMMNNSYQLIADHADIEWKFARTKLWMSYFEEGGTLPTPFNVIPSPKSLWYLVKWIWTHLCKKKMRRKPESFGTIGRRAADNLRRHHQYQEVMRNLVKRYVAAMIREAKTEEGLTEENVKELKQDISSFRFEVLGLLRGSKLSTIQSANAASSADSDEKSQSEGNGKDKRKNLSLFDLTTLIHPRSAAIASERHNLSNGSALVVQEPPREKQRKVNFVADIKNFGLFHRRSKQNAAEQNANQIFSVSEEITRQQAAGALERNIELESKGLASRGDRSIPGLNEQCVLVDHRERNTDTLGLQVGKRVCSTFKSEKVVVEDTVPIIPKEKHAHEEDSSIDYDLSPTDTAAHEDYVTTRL

[9] = biological target: Delta-type opioid receptor (Homo sapiens, UniProt P41143); assay: as §1, with “of OPRD1” for “of OPRM1”, “homodimerization. [Related pubchem assays (depositor defined):AID504326, AID504355, AID504692, AID504904, AID504905]” for “homodimerization.”; type: functional
[10] = biological target: T2, Fatty acid synthase (Homo sapiens, UniProt P49327); assay: FAS thioesterase domain inhibitors, dose response, biochemical, kinetic fluorescence intensity (AID 624326); type: functional;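 note: rate of fluorescence rise from hydrolysis of a fluorogenic O-methyl fluorescein ester substrate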
[11] = system: HEK293; assay: cells; conditions: Homo sapiens
[12] = biological target: T2, Fatty acid synthase; assay: FAS thioesterase domain inhibitors, dose response, biochemical, endpoint fluorescence intensity, uHTS hits (AID 624327); type: functional;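 note: fluorescence from hydrolysis of an O-methyl fluorescein acyl ester substrate by the enzyme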
[13] = biological target: T3, Replicative DNA helicase DnaB (Mycobacterium tuberculosis, UniProt P9WMR3); assay: DnaB intein splicing inhibitors, dose response, biochemical, cell-free fluorescence (AID 449749); type: functional
T3 sequence (P9WMR3 whole entry): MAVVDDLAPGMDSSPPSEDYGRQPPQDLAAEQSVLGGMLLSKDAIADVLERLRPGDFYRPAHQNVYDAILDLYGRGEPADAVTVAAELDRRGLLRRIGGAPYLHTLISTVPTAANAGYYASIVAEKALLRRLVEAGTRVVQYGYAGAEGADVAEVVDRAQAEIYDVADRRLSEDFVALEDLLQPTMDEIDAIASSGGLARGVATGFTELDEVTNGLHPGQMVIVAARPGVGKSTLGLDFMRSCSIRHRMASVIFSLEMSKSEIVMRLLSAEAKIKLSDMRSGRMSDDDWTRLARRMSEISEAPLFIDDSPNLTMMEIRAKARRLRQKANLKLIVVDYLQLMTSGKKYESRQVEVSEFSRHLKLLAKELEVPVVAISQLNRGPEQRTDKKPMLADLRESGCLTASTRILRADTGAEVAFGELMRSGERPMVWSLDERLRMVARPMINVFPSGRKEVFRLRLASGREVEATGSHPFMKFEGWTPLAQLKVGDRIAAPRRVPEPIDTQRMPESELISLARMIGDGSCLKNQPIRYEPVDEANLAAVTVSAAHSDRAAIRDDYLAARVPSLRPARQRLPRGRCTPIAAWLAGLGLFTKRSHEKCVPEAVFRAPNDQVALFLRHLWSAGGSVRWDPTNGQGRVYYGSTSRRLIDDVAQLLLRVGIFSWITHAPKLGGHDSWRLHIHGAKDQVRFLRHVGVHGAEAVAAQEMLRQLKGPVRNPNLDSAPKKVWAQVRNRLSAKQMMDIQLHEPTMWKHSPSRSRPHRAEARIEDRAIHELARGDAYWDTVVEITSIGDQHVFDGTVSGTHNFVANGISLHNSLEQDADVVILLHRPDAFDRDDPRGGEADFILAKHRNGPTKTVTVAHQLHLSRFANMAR

[14] = biological target: T4, Protein RecA (Mycobacterium tuberculosis, UniProt P9WHJ3); assay: Fluorescence Cell-Free Homogeneous Dose Retest to Identify Inhibitors of RecA-Intein Splicing Activity. [Related pubchem assays (depositor defined):AID2097, AID2223, AID489010, AID492950]; type: functional
T4 sequence (P9WHJ3 whole entry): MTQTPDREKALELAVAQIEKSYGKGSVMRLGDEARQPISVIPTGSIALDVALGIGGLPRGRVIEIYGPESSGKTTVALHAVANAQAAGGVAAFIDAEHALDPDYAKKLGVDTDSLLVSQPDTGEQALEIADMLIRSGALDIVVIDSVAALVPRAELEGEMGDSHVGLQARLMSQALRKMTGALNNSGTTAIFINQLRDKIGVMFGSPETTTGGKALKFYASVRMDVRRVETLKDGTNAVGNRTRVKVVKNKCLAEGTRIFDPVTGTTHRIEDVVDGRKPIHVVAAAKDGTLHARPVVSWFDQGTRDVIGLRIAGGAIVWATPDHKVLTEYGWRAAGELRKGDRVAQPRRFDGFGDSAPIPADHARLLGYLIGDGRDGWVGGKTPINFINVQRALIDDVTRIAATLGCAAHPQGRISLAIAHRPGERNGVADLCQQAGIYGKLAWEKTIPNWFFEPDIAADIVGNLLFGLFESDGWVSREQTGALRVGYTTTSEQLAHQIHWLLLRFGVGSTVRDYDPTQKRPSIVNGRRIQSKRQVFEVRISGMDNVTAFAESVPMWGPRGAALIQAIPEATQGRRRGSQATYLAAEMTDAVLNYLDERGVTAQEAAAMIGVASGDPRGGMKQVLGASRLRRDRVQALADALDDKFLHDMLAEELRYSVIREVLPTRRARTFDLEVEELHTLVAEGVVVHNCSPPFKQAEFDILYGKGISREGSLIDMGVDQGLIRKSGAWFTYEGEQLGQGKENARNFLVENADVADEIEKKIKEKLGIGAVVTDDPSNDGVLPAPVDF

[15] = system: HEK293; assay: cells; conditions: Homo sapiens; remark: listed apart in the source
[16] = HEp-2 cell cytotoxicity, dose response, cytotoxicity control for RSV inhibitor project, HTS (AID 2410); type: functional; conditions: human respiratory syncytial virus
[17] = system: Vero; assay: cells; type: functional; conditions: Chlorocebus sabaeus
[18] = system: Vero; assay: host cell cytotoxicity of antiviral hits, dose response, cytotoxicity control for West Nile virus antiviral project, secondary assay (AID 1650); type: functional; conditions: Chlorocebus sabaeus
[19] = biological target: T5, Zinc finger protein mex-5 (Caenorhabditis elegans, UniProt Q9XUB2); assay: MEX-5/TCR-2 RNA interaction inhibitors, dose response, biochemical, C. elegans, fluorescence polarization (AID 1960)
T5 sequence (Q9XUB2 whole entry): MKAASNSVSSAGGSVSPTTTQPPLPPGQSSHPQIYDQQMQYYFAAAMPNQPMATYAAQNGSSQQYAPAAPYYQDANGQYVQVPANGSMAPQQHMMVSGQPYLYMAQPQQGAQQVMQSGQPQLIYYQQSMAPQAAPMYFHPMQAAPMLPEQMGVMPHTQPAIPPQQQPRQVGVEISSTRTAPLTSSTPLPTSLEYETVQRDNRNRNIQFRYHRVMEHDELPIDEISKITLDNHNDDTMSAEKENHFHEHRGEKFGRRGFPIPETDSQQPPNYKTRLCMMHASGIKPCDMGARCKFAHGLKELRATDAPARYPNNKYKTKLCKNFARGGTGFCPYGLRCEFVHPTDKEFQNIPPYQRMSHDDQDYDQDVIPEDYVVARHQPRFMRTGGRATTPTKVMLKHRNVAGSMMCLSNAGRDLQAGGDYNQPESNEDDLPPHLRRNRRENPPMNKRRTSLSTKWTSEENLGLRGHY

[20] = system: Streptococcus sp. 'group A'; assay: growth inhibition of control SK(-) GAS strain, dose response, counter-screen for streptokinase expression inhibitor project, luminescence, kanamycin, BacTiterGlo, confirmation (AID 1900); type: functional, organism-based
[21] = system: Escherichia coli; assay: microbe, parasite or virus in culture; remark: listed apart in the source
[22] = system: Streptococcus; assay: Group A Streptococcus viability loss, dose response, counter-screen for streptokinase expression inhibitor project, luminescence, BacTiterGlo (AID 1915); type: functional, organism-based;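 note: potency for reduction of bacterial viability or growth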
[23] = system: HEK293; assay: cells; type: functional, cell-based; conditions: Homo sapiens
[24] = biological target: Nuclear receptor subfamily 0 group B member 1 (Homo sapiens, UniProt P51843); assay: Luminescence-based cell-based high throughput dose response assay for inhibitors of the orphan nuclear receptor subfamily 0, group B, member 1 (DAX1; NR0B1). [Related pubchem assays (depositor defined):AID504766, AID504790]; type: functional
[25] = Luminescence Cell-Based Dose Confirmation to Identify Activators of 5'UTR Stem-Loop Driven Alpha-Synuclein mRNA Translation in H4 Neuroglioblastoma Cells. [Related pubchem assays: 1829 (Project Summary), 1814 (Primary HTS)]; type: functional
[26] = Luminescence Cell-Based Dose Response to Identify Activators of Luciferase Translation or Activity in H4-C Neuroglioblastoma Cells. [Related pubchem assays: 1829 (Project Summary), 1814 (Primary HTS)]; type: functional
[27] = Luminescence Cell-Based Dose Response to Identify Activators of 5'UTR Stem-Loop Driven Prion Protein mRNA Translation in H4-C Neuroglioblastoma Cells. [Related pubchem assays: 1829 (Project Summary), 1814 (Primary HTS)]; type: functional
[28] = system: H4; assay: Luminescence Cell-Based Dose Response HTS to Identify Activators of 5'UTR Stem-Loop Driven Prion Protein mRNA Translation in H4 Neuroglioblastoma Cells. [Related pubchem assays: 1829 (Project Summary), 1814 (Primary HTS)]; type: functional; conditions: Homo sapiens

Sequence of Nuclear receptor subfamily 0 group B member 1 (P51843 whole entry): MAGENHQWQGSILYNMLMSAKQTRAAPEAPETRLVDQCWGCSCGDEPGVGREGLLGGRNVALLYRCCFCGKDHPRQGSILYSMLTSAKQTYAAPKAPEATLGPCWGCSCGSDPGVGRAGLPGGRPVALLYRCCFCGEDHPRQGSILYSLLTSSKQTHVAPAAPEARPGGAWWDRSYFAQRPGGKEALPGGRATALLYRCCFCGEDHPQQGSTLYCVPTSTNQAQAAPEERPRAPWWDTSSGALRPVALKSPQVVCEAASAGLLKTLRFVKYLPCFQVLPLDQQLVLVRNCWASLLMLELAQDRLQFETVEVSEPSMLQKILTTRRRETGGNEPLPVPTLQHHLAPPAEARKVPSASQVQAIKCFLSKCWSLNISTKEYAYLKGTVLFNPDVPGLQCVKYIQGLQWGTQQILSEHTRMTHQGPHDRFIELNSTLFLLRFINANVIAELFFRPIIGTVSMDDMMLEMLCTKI
Sequence of Delta-type opioid receptor (P41143 whole entry, the tested form may be a part): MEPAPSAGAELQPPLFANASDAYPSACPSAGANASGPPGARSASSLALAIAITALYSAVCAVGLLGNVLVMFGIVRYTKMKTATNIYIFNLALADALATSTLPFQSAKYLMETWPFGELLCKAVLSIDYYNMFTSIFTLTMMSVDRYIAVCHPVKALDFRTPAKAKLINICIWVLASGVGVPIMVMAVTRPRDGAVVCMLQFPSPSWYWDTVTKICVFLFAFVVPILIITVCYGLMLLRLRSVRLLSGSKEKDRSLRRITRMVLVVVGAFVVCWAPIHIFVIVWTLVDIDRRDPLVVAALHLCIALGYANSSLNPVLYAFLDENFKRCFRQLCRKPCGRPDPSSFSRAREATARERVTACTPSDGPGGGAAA
Sequence of 5-hydroxytryptamine receptor 5A (P47898 whole entry): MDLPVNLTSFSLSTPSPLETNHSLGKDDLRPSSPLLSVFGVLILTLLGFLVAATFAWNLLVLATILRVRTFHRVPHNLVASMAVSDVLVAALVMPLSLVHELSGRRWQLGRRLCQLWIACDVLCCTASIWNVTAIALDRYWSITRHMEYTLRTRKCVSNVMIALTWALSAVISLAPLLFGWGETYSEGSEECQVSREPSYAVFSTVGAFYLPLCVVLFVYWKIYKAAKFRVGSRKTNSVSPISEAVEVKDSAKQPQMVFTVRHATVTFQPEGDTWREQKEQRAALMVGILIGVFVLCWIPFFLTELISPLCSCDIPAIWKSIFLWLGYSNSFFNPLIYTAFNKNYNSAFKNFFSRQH
Sequence of Mu-type opioid receptor (P35372 whole entry): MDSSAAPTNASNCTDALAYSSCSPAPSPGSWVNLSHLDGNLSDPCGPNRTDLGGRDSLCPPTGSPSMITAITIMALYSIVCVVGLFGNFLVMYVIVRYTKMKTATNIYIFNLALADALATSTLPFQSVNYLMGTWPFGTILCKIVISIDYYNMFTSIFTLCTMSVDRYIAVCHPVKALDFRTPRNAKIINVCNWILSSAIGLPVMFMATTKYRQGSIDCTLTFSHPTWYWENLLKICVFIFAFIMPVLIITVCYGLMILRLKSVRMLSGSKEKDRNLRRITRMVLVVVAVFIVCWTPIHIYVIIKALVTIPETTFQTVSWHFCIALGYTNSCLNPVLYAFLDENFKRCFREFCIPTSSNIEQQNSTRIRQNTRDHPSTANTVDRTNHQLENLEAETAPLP
T2 sequence (P49327 whole entry, the tested form may be a part): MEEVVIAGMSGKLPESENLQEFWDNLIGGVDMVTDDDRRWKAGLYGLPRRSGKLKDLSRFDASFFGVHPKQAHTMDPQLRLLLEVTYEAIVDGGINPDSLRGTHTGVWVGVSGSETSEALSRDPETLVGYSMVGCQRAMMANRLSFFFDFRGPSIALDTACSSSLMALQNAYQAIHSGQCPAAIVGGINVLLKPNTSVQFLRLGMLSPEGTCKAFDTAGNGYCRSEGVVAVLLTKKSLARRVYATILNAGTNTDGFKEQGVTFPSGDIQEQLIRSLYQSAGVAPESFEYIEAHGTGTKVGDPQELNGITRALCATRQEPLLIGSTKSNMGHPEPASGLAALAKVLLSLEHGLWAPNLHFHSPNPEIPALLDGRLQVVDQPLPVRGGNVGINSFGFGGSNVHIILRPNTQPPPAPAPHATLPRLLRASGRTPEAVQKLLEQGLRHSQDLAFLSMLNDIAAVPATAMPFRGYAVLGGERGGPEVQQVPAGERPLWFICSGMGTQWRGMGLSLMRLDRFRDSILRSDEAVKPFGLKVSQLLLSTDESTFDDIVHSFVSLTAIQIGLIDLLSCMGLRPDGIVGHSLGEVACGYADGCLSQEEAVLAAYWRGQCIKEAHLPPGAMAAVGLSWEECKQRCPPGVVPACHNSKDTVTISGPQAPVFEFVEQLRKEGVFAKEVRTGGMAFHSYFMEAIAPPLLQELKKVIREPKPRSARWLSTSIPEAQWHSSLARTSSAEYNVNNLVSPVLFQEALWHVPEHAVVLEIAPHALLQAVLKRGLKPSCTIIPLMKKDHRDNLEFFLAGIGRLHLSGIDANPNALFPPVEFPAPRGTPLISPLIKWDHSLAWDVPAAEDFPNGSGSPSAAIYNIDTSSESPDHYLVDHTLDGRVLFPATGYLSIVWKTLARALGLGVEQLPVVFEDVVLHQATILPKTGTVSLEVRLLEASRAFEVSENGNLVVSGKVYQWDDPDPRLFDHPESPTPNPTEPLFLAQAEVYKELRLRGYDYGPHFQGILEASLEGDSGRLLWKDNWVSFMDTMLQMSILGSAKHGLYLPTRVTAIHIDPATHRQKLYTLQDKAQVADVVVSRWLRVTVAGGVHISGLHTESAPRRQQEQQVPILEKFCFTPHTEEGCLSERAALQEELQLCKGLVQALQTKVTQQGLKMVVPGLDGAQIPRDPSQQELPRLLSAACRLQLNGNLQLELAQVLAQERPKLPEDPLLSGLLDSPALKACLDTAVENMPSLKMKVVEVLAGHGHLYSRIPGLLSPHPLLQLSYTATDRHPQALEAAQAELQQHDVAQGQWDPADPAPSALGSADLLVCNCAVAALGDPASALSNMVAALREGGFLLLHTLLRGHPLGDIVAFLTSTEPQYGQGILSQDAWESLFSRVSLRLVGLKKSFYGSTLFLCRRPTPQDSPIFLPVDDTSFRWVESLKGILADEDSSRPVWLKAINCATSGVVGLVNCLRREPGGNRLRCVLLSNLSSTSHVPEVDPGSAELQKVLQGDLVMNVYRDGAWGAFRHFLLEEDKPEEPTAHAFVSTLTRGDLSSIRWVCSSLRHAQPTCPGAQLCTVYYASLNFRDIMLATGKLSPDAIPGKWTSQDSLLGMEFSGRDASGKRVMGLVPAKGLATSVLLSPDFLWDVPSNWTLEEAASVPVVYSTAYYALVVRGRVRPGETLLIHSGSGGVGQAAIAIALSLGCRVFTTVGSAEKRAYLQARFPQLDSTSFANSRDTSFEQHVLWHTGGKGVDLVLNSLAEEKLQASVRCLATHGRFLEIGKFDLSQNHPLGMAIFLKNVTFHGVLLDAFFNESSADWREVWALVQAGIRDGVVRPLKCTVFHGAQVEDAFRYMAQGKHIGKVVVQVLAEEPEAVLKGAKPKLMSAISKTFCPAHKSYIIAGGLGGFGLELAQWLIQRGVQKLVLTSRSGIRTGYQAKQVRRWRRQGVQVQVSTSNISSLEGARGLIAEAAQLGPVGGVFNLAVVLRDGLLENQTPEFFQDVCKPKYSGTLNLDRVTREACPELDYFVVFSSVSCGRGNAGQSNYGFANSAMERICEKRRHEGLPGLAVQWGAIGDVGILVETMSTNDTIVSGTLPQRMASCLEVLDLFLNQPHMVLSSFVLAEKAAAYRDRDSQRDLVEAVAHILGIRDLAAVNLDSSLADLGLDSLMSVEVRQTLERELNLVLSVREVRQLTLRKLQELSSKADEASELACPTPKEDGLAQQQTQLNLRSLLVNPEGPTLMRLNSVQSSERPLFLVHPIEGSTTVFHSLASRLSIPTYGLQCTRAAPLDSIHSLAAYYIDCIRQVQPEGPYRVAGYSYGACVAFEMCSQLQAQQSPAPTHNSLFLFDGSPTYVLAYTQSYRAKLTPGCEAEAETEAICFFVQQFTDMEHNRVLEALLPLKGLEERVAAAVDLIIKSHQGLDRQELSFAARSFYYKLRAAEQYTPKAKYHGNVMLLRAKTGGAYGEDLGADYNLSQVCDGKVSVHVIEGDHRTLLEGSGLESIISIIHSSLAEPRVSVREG

CCCCOCC1CN(c2ccccc2)C(=O)CS1 (stereo unspecified)
AC50 [1]: 20.9 µM (active)

O=C1c2cccc3cc([N+](=O)[O-])cc(c23)C(=O)N1c1ccccc1O
IC50 [2]: 2.35 µM (active) | IC50 [3]: > 50 µM (active) | EC50 [4]: 9.05 µM (active) | EC50 [5]: 0.354 µM (active)

CCOC(=O)C1(CC2CCCCO2)CCN(Cc2c(C)cc(C)cc2-n2cccn2)CC1 (stereo unspecified)
EC50 [6]: 15.5 µM (inactive) | EC50 [7]: > 92.5 µM (inactive) | EC50 [8]: 0.0293 µM (active) | EC50 [9]: > 92.5 µM (inactive)

CCc1cccc(CC)c1NC(=O)/C(C#N)=C/c1ccccc1C(F)(F)F
IC50 [10]: 4.74 µM (active) | EC50 [11]: > 59.6 µM (inactive) | IC50 [12]: 7.72 µM (active) | AC50 [13]: 4.45 µM (active) | EC50 [14]: 11.7 µM (active) | EC50 [15]: > 59.6 µM (inactive)

COc1ccc(-c2csc(N(CCCN(C)C)C(=O)c3cccs3)n2)cc1
EC50 [6]: > 92.5 µM (inactive) | EC50 [7]: > 92.5 µM (inactive) | EC50 [9]: > 92.5 µM (inactive)

CC1(C)COC(/C=C/c2cccc([N+](=O)[O-])c2)=N1
IC50 [2]: 21.5 µM (active) | CC50 [16]: 9.78 µM (active) | CC50 [17]: 15.1 µM (active) | CC50 [18]: 12.6 µM (active)

C[C@H]1c2cccc(O)c2C(=O)C2=C(O)[C@]3(O)C(O)=C(C(N)=O)C(=O)[C@@H](N(C)C)C3[C@@H](O)C21 (stereo partly specified)
EC50 [19]: 45.3 µM (active) | AC50 [1]: 39.8 µM (active) | EC50 [20]: < 0.06 µM (active) | AC50 [21]: 2.34 µM (active) | EC50 [22]: 0.109 µM (active)

Cc1ccccc1Nc1nc(N)nc(CSc2ccc(F)cc2)n1
IC50 [23]: > 67.5 µM (inactive) | IC50 [24]: > 67.5 µM (inactive) | EC50 [25]: 0.229 µM (active) | EC50 [26]: 0.351 µM (active) | EC50 [27]: 0.343 µM (active) | EC50 [28]: < 0.1 µM (active)

COc1ccc(C(=O)C2(C)N(O)C(C)C(c3cccs3)=[N+]2[O-])cc1 (stereo unspecified)
AC50 [21]: > 380 µM (inactive)

CC(=O)Nc1ccc(S(=O)(=O)N[C@@H](C)C(=O)OCC(=O)c2ccc(Br)s2)cc1
IC50 [23]: > 67.5 µM (inactive) | IC50 [24]: > 67.5 µM (inactive)

— ChEMBL document CHEMBL1201862, “PubChem BioAssay data set” (2004)
